# Key:
# irritable bowel syndrome = details: patient
# Procedure: The patient, a patient suffering from irritable bowel syndrome presented symptoms of nausea, vomiting, abdominal pain, and altered bowel habits. This patient was treated with lupron, 2.0 mg/day by subcutaneous injection, for a period of six months. […] Nafarelin is a GnRH analog available from SYNTEX, which differs from the natural GnRH peptide in a D-Nal (2)^6 substitution. […] Nafarelin therapy was discontinued, and treatment with Danazol, a 17-ethyltestosterone derivative known to antagonize GnRH receptors at the level of the pituitary, was begun, at 200 mg four times daily, P.O., for a period of three months.
# [1] = test system: serum estradiol, progesterone, LH, FSH; test: Serum estradiol, progesterone, FSH and LH by radioimmunoassay before and after three months of leuprolide; format: in vivo, human; details: for Estradiol after 3 months / Progesterone after 3 months / FSH after 3 months / LH after 3 months: serum
# Description: The symptoms of the two patients with GMD were abdominal pain located in the right upper quadrant and epigastrium, daily nausea, and intermittent vomiting exacerbated by eating and by the luteal phase of the menstrual cycle. The two patients with IIHVN had abdominal pain, nausea, and intermittent vomiting, and also had urinary tract involvement consisting of pain and a decrease in urination. The fifth patient had Roux-en-Y syndrome (defined as epigastric-to-right-upper-quadrant pain, nausea, and vomiting increased by eating) after surgical construction of a gastro-jejunal Roux-en-Y anastomosis. The mean duration of these symptoms was eight years (Table 1). All subjects had undergone extensive blood testing, several upper gastrointestinal x-ray series, barium enemas, esophagogastroduodenoscopy, endoscopic retrograde cholangiopancreatography, gastric emptying tests with radiolabeled meal, ultrasound of the abdomen, computerized axial tomography of the abdomen, and many other tests. The results of all tests were normal, except for prolonged gastric emptying in the patient with the Roux-en-Y Syndrome. Because of their intractable clinical problem, these patients were included in the test protocol with leuprolide acetate. Protocol: The symptoms of each patient were first assessed, and their tests evaluated. Each patient kept a daily symptom diary. Leuprolide acetate was obtained by prescription as Lupron (TAP pharmaceuticals, Abbott Labs, North Chicago, Ill.). One multi-use vial of Lupron comprised of […] Leuprolide Acetate. A daily dose of 0.5 mg ([…]) was self-administered by subcutaneous injection, for a period of three months. Each patient was examined at 0, 1 and 3 months of treatment. After the third month, leuprolide was continued as previously, and estrogen (0.625 mg orally) and calcium (1000 mg orally) were also administered. At the end of the sixth month, a two week withdrawal period from leuprolide acetate ensued. During this period a 10 mg oral dose of progesterone was given to pre-menopausal patients, to assess recurrence of symptoms and to induce menses. Post-menopausal women were not treated with progesterone during the two week withdrawal period. This procedure was then continued for an additional six months, with drug withdrawal and progesterone given every three months to induce a menstrual cycle. Serum estradiol, progesterone, FSH, and LH were quantitated by radioimmunoassay prior to the initiation of leuprolide treatment, and at three months post treatment initiation.
# [2] = test system: GI disorders secondary to SLE; test: Treatment of patients with GI disorders secondary to Systemic Lupus Erythematosus: clinical outcome; format: in vivo, human; details: for GI symptoms: within eight weeks
# Procedure: Daily treatment with 2.0 mg luprolide acetate (Lupron, Tapp Abbott Pharmaceutical Company) was given daily by subcutaneous injection. […] Treatment with 1.25 mg. of leuprolide acetate (Lupron) was given daily by subcutaneous injection. […] Daily administration of 1.75 mg of luprolide acetate (Lupron) was administered subcutaneously. […] This patient has been hospitalized several times since beginning luprolide acetate therapy for exacerbations of their SLE, but the GI tract has not been a factor. Their debilitating symptoms have been controlled, and they were able to return to work. Daily administration of 1.5 mg of luprolide acetate (Lupron) was given by subcutaneous injection. Within eight weeks of Lupron therapy, their GI symptoms were controlled. […] Daily administration of 1.75 mg luprolide acetate (Lupron) was given subcutaneously. After six months of Lupron therapy, motility recordings were again performed. Ten migrating motor complexes per 12 hour recording session were seen. These complexes were organized and appeared more typical of a controlled tracing, showing normal cycling activity in the stomach and small intestine. […] Their hydrogen breath test was unchanged.
# [3] = after three months of treatment vs baseline
# [4] = SLE patient 1, 2.0 mg daily s.c.
# [5] = SLE patient 2, 1.25 mg daily s.c., within approximately eight weeks
# [6] = SLE patient 4, 1.5 mg daily s.c.
smiles,measurement,setting,value
"CCNC(=O)[C@@H]1CCCN1C(=O)[C@H](CCCNC(=N)N)NC(=O)[C@H](CC(C)C)NC(=O)[C@@H](CC(C)C)NC(=O)[C@H](Cc1ccc(O)cc1)NC(=O)[C@H](CO)NC(=O)[C@H](Cc1c[nH]c2ccccc12)NC(=O)[C@H](Cc1c[nH]cn1)NC(=O)[C@@H]1CCC(=O)N1 [Leuprolide acetate, leuprolide acetate]",Blood levels of FSH and LH,"irritable bowel syndrome; 2.0 mg/day s.c., six months (entry one)",effectively reduced their blood levels of FSH and LH
same,Symptoms of irritable bowel disease,"irritable bowel syndrome; 2.0 mg/day s.c., six months (entry two)",effectively reduced the symptoms of their irritable bowel disease
same,Irritable bowel symptoms,"irritable bowel syndrome; depot of 7.5 mg I.M. monthly with 100 mg testosterone depot I.M. monthly, after six months",controlled without side effects
same,Estradiol after 3 months,"[1]; Patient 1, baseline 44.0 pg/ml",13.0 pg/mL
same,Progesterone after 3 months,"[1]; Patient 1, baseline 3.0 n/ml",< 0.25 n/ml
same,FSH after 3 months,"[1]; Patient 1, baseline 12.1 mIU/ml",9.0 MIU/ml
same,LH after 3 months,"[1]; Patient 1, baseline 19.0 mIU/mL",6.0 mIU/ml
same,Estradiol after 3 months,"[1]; Patient 2, baseline 44.0 pg/ml",39.0 pg/mL
same,Progesterone after 3 months,"[1]; Patient 2, baseline 1.0 n/ml",< 0.25 n/ml
same,FSH after 3 months,"[1]; Patient 2, baseline 13.0 mIU/ml",11.0 MIU/ml
same,LH after 3 months,"[1]; Patient 2, baseline 16.0 mIU/ml",7.0 mIU/ml
same,Estradiol after 3 months,"[1]; Patient 3, baseline 28.0 pg/ml",3.4 pg/mL
same,LH after 3 months,"[1]; Patient 3, baseline 18.4 mIU/ml",11.2 mIU/ml
same,FSH after 3 months,"[1]; Patient 3, baseline 32.0 mIU/ml",11.2 mIU/ml
same,Progesterone after 3 months,"[1]; Patient 3, baseline <0.25 n/ml",< 0.25 n/ml
same,Estradiol after 3 months,"[1]; Patient 4, baseline 20.0 pg/ml",5.5 pg/mL
same,Progesterone after 3 months,"[1]; Patient 4, baseline 3.0 n/ml",< 0.25 n/ml
same,FSH after 3 months,"[1]; Patient 4, baseline 13.1 mIU/ml",7.9 mIU/ml
same,LH after 3 months,"[1]; Patient 4, baseline 18.3 mIU/ml",5.0 MIU/ml
same,Estradiol and FSH levels,[1]; [3],decreased
same,Levels of serum progesterone and LH,[1]; [3],significant decrease
same,Compliment levels (C3 and C4),[2]; [4],returned to normal
same,"Hemoglobin, hematocrit, white blood cells and platelets",[2]; [4],returned to normal
same,Need of Imuran or prednisone to control SLE,[2]; [4],no longer required Imuran or prednisone
same,GI symptoms,[2]; [4],free of the above described GI symptoms
same,Body weight gained,[2]; [5],15-20 pounds
same,Gastrointestinal symptoms,[2]; [5],free of gastrointestinal symptoms
same,Oral food intake,"[2]; SLE patient 3, 1.75 mg daily s.c., required TPN before","able to eat soft, solid food by mouth"
same,GI symptoms,"[2]; SLE patient 3, 1.75 mg daily s.c.",controlled
same,Nutrition,[2]; [6],able to eat and maintain their nutrition on liquid supplements taken by mouth
same,Body weight within six months,"[2]; SLE patient 4, 1.5 mg daily s.c., oral intake","did not gain weight, but they did not lose weight"
same,GI symptoms,[2]; [6],controlled
same,"Effectiveness of therapy in an older, post menopausal patient",[2]; SLE patient 5,effective
same,Eating and body weight,"[2]; SLE patient 5, after six months of therapy",able to eat foods by mouth and gained weight

# Reference: patent US5434136A, “Treatment of motility disorders with a GNRH analog” (priority 1992, dated 1995)
